Experimental data as given in ChEMBL document CHEMBL1201862, “PubChem BioAssay data set” (2004).
Activity calls are given as the source filed them.

Columns and labels:
[1] = molecular target: Eukaryotic translation initiation factor 4E (Mus musculus, UniProt P63073); test: eIF4E–eIF4G protein interaction inhibitors, dose response, biochemical, TR-FRET (AID 855); type: functional;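 note: potency for disrupting eIF4E binding to eIF4GI seen as loss of FRET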
[2] = molecular target: SUMO E1/E2 (Homo sapiens, UniProt P63279+Q9UBE0+Q9UBT2); test: SAR analysis of SUMOylation using HTRF in an in-Vitro dose response assay. [Related pubchem assays (depositor defined):AID2006, AID2011, AID2018, AID2069, AID2658]; type: functional
[3] = molecular target: T1, Short transient receptor potential channel 4 (Mus musculus, UniProt Q9QUQ5); test: mouse TRPC4 channel inhibitors, dose response, cell-based, HEK293 TRPC4/mu-opioid, Fluo-4 calcium (AID 434942); type: functional;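 note: potency of inhibitors blocking the TRPC4 calcium response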
T1 sequence (Q9QUQ5 whole entry): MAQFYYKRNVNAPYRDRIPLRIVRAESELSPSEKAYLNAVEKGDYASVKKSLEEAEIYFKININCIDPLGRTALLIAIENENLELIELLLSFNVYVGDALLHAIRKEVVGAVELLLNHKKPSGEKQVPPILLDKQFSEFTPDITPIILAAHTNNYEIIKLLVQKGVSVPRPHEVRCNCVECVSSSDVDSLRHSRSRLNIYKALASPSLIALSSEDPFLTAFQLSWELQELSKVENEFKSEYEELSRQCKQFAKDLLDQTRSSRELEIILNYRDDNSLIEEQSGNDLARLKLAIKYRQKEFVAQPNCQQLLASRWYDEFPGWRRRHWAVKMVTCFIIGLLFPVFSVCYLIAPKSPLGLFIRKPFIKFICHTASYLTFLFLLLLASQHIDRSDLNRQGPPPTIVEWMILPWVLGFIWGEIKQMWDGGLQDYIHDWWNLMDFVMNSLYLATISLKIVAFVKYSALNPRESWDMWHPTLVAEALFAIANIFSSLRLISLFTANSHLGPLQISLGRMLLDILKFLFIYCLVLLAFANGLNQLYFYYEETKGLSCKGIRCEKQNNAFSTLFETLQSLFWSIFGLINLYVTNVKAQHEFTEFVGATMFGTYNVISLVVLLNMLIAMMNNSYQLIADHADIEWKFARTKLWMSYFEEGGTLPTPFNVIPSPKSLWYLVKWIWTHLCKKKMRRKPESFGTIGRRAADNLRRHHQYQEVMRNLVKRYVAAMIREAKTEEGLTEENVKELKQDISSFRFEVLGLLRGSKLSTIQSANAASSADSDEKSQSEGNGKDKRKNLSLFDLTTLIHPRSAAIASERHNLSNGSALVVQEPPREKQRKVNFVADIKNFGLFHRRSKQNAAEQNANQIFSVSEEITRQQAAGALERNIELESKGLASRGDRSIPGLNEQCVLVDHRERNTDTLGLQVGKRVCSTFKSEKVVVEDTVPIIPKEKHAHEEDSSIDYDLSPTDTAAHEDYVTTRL

[4] = molecular target: DNA dC->dU-editing enzyme APOBEC-3G (Homo sapiens, UniProt Q9HC16); test: Dose Response confirmation of small molecule APOBEC3G DNA Deaminase Inhibitors via a fluorescence-based single-stranded DNA deaminase assay. [Related pubchem assays (depositor defined):AID493012, AID493028]; type: functional
Sequence of DNA dC->dU-editing enzyme APOBEC-3G (Q9HC16 whole entry): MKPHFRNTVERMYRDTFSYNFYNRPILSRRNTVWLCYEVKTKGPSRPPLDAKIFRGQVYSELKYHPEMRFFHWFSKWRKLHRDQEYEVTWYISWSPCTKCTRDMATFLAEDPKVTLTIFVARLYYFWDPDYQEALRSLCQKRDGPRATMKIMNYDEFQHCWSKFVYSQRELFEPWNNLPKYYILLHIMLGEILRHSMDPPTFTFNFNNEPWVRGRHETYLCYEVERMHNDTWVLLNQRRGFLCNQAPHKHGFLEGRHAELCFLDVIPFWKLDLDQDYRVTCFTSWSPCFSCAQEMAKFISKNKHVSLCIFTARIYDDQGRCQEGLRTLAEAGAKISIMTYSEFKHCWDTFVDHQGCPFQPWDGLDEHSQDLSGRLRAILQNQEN

[5] = test system: HEK293; test: cells; type: functional, cell-based; settings: Homo sapiens
[6] = molecular target: Nucleotide-binding oligomerization domain-containing protein 2 (Homo sapiens, UniProt Q9HC29); test: NOD2 signaling inhibitors, cell-based, luminescence, uHTS, HEK293 (AID 1566); type: functional
Sequence of Nucleotide-binding oligomerization domain-containing protein 2 (Q9HC29 whole entry, the tested form may be a part): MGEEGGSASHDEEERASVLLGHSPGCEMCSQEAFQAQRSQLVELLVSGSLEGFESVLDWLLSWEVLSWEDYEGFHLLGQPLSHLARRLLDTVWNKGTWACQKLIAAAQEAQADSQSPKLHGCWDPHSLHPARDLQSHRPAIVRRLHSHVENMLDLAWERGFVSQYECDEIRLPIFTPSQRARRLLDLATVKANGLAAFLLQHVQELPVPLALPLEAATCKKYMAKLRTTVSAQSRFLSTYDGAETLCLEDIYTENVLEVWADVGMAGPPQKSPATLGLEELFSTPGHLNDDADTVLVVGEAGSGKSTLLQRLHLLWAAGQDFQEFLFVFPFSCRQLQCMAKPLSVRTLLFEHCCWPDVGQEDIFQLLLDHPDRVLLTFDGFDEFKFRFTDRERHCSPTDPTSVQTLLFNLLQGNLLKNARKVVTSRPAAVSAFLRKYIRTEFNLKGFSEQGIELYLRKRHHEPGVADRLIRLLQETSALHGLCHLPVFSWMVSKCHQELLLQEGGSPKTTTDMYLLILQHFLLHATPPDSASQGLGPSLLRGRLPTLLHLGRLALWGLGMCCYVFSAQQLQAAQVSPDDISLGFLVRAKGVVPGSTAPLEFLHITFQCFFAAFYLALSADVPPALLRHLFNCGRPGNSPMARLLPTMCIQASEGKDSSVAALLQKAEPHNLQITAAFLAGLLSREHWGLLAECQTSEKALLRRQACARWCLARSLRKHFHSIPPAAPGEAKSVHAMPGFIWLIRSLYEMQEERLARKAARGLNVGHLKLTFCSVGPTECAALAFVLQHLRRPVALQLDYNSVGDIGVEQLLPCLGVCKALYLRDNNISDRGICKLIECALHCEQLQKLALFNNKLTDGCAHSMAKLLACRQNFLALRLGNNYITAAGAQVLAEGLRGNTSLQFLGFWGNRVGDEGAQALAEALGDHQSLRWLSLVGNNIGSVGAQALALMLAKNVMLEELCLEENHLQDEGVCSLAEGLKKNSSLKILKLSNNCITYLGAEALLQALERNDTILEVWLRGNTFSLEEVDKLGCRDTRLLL

[7] = test system: HEK293; test: NOD2 signaling inhibitors in MDP-stimulated cells, cell-based, uHTS, luminescence (AID 2001); type: functional; settings: Homo sapiens
[8] = test system: HEK293; test: cells; type: functional, cell-based; settings: Homo sapiens; remark: listed apart in the source
[9] = test system: HEK293; test: NOD1 signaling inhibitors, primary screen, cell-based, luminescence, uHTS (AID 1578); type: functional; settings: Homo sapiens
[10] = test system: HEK293; test: cells; type: functional, cell-based; settings: Homo sapiens; remark: listed apart in the source
[11] = molecular target: T2, Fatty acid synthase (Homo sapiens, UniProt P49327); test: FAS thioesterase domain inhibitors, dose response, biochemical, endpoint fluorescence intensity, uHTS hits (AID 624327); type: functional;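 note: fluorescence from hydrolysis of an O-methyl fluorescein acyl ester substrate by the enzyme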
[12] = molecular target: T2, Fatty acid synthase; test: FAS thioesterase domain inhibitors, dose response, biochemical, kinetic fluorescence intensity (AID 624326); type: functional;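 note: rate of fluorescence rise from hydrolysis of a fluorogenic O-methyl fluorescein ester substrate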
[13] = inhibitors of clade B AD8 Env fusion, dose response, cell-based, cherry-pick (AID 652062); type: functional;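 note: luciferase signal from cell-cell fusion driven by HIV-1 clade B AD8 Env; potency is for inhibitors of fusion seen as a drop in luminescence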
[14] = molecular target: Neurotensin receptor type 1 (Homo sapiens, UniProt P30989); type: functional;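 note: Image-based confirmatory dose-response assay measuring agonist activity at NTR1; NTR1-expressing U2OS osteosarcoma cells imaged for beta-arrestin GFP spot formation; agonist potency where compounds increase beta-arrestin recruitment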
Sequence of Neurotensin receptor type 1 (P30989 whole entry, the tested form may be a part): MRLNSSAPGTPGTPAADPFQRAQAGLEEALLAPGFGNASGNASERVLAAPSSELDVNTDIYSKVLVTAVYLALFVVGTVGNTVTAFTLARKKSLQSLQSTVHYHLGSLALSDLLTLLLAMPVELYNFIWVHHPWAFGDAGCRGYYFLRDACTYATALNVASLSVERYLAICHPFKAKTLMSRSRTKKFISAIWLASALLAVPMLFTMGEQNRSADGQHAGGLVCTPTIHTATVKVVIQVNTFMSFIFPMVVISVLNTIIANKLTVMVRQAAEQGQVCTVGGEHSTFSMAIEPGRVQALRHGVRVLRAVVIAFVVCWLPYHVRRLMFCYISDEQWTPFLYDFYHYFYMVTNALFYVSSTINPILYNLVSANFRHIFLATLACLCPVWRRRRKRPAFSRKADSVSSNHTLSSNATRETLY

[15] = inhibitors of HIV Env-driven cell fusion, dose response, cherry-pick (AID 652057); type: functional, cell-based
[16] = CEM21 lymphoblast cell cytotoxicity, dose response, cytotoxicity control for viral fusion inhibitor project, CellTiter-Glo luminescence, cherry-picked (AID 652042); type: functional, cell-based;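 note: potency for signal decrease meaning cytotoxicity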
[17] = molecular target: T3, Replicative DNA helicase DnaB (Mycobacterium tuberculosis, UniProt P9WMR3); test: DnaB intein splicing inhibitors, dose response, biochemical, cell-free fluorescence (AID 449749); type: functional
T3 sequence (P9WMR3 whole entry): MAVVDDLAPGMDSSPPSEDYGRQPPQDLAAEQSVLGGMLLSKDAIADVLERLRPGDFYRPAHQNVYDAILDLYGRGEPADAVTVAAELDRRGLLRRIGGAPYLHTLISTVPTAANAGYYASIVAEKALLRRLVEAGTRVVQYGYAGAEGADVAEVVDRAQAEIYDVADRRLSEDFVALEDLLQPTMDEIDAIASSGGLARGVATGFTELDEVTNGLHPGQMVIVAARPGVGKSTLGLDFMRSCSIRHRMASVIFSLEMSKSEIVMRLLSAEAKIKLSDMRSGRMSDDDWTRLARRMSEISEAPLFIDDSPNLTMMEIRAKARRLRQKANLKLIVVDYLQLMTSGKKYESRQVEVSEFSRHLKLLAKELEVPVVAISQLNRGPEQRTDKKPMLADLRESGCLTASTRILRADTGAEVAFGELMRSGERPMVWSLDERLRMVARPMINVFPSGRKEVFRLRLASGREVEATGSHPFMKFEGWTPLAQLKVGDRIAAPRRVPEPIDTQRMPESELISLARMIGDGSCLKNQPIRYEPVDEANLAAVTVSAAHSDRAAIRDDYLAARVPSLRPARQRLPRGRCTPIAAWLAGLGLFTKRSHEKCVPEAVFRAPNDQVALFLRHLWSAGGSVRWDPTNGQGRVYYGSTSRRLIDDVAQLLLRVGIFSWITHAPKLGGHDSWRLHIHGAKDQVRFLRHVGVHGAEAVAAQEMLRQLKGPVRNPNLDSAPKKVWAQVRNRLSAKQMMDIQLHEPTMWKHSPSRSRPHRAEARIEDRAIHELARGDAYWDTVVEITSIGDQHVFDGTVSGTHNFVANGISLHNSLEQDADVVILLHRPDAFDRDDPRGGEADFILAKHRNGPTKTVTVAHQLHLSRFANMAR

[18] = molecular target: Induced myeloid leukemia cell differentiation protein Mcl-1 (Homo sapiens, UniProt Q07820); type: functional
[19] = C. albicans growth with fluconazole, confirmation, fluorescence, retest (AID 2467); type: functional, cell-based
[20] = molecular target: T4, Voltage-gated N-type calcium channel alpha-1B subunit/Amyloid beta A4 precursor protein-binding family A member 1 (Homo sapiens, UniProt Q00975+Q02410); test: disruptors of Mint-PDZ/N-type channel peptide interaction – biochemical, HTRF, SAR follow-up (AID 2489); type: functional
T4 sequence (Q00975 whole entry): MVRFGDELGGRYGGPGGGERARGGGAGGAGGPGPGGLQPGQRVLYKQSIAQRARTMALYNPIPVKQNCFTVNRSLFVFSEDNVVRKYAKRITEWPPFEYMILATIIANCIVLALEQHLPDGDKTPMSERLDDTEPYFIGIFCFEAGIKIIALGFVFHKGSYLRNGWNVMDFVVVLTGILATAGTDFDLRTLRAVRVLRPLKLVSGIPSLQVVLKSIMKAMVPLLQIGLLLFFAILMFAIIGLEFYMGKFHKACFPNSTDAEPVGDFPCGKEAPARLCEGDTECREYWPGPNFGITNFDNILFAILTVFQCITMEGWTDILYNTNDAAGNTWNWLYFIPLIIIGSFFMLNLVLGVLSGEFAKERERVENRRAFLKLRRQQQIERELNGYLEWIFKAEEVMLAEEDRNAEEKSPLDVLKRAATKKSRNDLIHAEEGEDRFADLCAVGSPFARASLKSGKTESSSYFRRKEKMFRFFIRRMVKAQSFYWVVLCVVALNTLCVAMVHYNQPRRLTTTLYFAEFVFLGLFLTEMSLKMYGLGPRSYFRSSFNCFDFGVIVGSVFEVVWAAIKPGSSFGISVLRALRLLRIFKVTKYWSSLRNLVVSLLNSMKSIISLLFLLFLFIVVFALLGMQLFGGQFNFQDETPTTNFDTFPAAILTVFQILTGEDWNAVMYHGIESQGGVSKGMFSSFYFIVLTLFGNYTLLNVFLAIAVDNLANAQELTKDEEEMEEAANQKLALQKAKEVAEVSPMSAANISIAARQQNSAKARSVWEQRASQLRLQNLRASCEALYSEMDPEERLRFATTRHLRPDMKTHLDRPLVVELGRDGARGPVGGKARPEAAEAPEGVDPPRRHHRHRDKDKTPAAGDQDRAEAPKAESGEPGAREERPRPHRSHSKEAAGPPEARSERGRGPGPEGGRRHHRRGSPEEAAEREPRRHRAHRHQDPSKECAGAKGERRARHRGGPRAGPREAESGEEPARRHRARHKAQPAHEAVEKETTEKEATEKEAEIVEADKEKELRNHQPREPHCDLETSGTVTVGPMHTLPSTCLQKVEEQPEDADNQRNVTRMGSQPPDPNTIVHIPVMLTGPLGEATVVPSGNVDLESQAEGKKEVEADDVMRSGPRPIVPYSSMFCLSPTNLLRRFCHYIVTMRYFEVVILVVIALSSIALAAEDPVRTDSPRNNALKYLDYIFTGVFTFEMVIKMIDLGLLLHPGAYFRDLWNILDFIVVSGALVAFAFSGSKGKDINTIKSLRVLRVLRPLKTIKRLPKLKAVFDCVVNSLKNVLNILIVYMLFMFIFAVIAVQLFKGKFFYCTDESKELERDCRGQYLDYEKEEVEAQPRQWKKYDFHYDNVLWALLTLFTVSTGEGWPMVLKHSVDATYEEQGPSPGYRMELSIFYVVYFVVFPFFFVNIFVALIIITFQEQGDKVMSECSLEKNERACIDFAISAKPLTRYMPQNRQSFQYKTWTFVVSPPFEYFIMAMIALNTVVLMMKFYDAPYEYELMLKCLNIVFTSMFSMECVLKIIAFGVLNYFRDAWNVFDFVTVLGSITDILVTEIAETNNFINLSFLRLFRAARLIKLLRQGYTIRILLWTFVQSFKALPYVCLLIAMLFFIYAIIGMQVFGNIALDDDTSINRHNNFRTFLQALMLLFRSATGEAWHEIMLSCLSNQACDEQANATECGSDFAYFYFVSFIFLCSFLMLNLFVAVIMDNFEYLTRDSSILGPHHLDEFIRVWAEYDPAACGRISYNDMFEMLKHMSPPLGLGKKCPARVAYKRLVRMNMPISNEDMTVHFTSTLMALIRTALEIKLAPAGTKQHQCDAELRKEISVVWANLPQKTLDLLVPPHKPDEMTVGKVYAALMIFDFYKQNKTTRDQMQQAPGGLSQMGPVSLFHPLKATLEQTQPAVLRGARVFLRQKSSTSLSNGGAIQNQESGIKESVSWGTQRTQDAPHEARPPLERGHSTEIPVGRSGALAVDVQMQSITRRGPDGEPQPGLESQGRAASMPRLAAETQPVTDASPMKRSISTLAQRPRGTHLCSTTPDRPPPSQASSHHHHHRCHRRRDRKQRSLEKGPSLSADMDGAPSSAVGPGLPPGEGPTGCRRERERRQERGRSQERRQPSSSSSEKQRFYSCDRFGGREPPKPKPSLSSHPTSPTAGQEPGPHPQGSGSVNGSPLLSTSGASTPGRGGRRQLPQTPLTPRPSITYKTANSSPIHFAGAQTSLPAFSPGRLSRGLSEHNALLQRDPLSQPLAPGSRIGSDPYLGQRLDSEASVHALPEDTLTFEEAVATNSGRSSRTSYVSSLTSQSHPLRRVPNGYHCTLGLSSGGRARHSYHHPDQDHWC
T4 sequence (Q02410 whole entry): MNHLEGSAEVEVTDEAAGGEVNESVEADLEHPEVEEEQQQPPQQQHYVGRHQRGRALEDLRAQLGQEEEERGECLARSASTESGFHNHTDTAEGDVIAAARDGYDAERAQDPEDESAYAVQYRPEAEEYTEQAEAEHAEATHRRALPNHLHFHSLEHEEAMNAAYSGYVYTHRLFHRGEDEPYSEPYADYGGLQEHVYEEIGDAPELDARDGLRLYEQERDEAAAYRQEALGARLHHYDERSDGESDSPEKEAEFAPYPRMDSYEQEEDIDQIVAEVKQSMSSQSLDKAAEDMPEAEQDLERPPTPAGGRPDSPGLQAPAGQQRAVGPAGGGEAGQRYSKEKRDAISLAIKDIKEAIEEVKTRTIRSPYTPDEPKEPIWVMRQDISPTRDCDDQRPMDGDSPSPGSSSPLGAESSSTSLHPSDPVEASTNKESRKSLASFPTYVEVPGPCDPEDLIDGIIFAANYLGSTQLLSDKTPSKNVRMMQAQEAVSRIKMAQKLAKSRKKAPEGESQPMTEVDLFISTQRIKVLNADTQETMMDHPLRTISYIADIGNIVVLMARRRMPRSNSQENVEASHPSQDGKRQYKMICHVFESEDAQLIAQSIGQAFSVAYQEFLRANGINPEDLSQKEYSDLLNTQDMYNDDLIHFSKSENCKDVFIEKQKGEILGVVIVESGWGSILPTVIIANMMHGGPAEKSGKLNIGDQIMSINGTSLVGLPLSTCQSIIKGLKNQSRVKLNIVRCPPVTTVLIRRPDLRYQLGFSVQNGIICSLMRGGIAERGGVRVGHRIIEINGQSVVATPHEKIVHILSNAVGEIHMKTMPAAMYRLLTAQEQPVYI

[21] = molecular target: T4, Voltage-gated N-type calcium channel alpha-1B subunit/Amyloid beta A4 precursor protein-binding family A member 1; type: protein assay
[22] = molecular target: T4, Voltage-gated N-type calcium channel alpha-1B subunit/Amyloid beta A4 precursor protein-binding family A member 1; type: protein assay; remark: listed apart in the source
[23] = molecular target: T5, Protein RecA (Mycobacterium tuberculosis, UniProt P9WHJ3); test: Fluorescence Cell-Free Homogeneous Dose Retest to Identify Inhibitors of RecA-Intein Splicing Activity. [Related pubchem assays (depositor defined):AID2097, AID2223, AID489010, AID492950]; type: functional
T5 sequence (P9WHJ3 whole entry): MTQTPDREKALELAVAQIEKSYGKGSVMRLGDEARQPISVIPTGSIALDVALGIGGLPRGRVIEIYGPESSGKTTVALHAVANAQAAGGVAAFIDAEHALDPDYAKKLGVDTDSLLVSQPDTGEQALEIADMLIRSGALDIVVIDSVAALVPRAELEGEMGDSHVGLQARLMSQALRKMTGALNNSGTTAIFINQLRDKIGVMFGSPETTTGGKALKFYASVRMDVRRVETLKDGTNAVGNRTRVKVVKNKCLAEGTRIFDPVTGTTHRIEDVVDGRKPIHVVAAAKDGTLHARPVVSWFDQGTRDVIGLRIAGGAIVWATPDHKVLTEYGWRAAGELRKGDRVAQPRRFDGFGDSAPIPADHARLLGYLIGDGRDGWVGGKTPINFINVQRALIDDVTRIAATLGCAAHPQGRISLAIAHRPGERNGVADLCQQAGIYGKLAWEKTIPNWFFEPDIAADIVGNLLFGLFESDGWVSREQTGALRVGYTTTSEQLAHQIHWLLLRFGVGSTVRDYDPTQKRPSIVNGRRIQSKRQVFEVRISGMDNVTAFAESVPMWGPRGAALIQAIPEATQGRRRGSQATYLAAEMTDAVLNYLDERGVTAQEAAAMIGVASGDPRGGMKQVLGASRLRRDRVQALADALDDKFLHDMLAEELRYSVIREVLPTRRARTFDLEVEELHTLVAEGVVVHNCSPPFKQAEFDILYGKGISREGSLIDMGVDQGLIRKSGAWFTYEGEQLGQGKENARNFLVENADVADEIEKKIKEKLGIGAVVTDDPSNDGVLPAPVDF

[24] = NIH-3T3 fibroblast cytotoxicity, dose response, cytotoxicity control, cell-based, fluorescence, Alamar Blue, secondary assay (AID 2327); type: functional;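 note: NIH-3T3 mouse fibroblasts cultured with fluconazole at 8 µg/mL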
[25] = molecular target: T4, Voltage-gated N-type calcium channel alpha-1B subunit/Amyloid beta A4 precursor protein-binding family A member 1; test: disruptors of Mint-PDZ/N-type channel peptide interaction – biochemical, HTRF, set 2, SAR follow-up (AID 434980); type: functional
[26] = molecular target: Peroxisome proliferator-activated receptor gamma/Nuclear receptor coactivator 1 (Homo sapiens, UniProt P37231); test: TR-FRET dose response biochemical High Throughput Screening assay for agonists of the steroid receptor coactivator 1 (SRC-1) recruitment by the peroxisome proliferator-activated receptor gamma (PPAR gamma): non-selective agonists. [Related pubchem assays (depositor defined):AID1300, AID1808, AID504735, AID631]; type: protein assay
[27] = molecular target: Peroxisome proliferator-activated receptor gamma/Nuclear receptor coactivator 2 (Homo sapiens, UniProt P37231); test: TR-FRET dose response biochemical High Throughput Screening assay for agonists of the steroid receptor coactivator 2 (SRC-2) recruitment by the peroxisome proliferator-activated receptor gamma (PPAR gamma): non-selective agonists. [Related pubchem assays: 1297, 1032 ]; type: functional
[28] = molecular target: Peroxisome proliferator-activated receptor gamma/Nuclear receptor coactivator 3 (Homo sapiens, UniProt P37231); test: TR-FRET dose response biochemical High Throughput Screening assay for agonists of the steroid receptor coactivator 3 (SRC-3) recruitment by the peroxisome proliferator-activated receptor gamma (PPAR gamma): non-selective agonists. [Related pubchem assays: 1301 (Confirmation screen.), 1048 (Primary screen.)]; type: functional

O=C(Nc1cccnc1)c1cc2c(ccc3ccccc32)o1
IC50 [1]: > 64 µM (inactive)

Nc1ccc2c(c1)C1C=CCC1C(c1ccccc1)N2 (configuration not stated)
IC50 [2]: > 100 µM (inactive)

Nc1cc(=O)nc(SCC(=O)N2CCN(c3ccccc3)CC2)n1-c1ccc(F)cc1
EC50 [3]: 6.68 µM (active)

O=S(=O)(Cc1ccccc1)N=Nc1c(O)[nH]c2ccc(Br)cc12
IC50 [4]: 44.3 µM (active)

CC1CCc2nc(NC(=O)CSc3nc4ccccc4o3)sc2C1 (configuration not stated)
IC50 [5]: 3.36 µM (active)
EC50 [6]: > 20 µM (inactive)
IC50 [7]: 5.28 µM (active)
IC50 [8]: > 20 µM (inactive)
EC50 [9]: 5.78 µM (active)
IC50 [10]: 15.4 µM (active)

O=c1c2ccccc2nc(SCc2ccc([N+](=O)[O-])cc2)n1CCCO
IC50 [11]: 10.2 µM (active)
EC50 [3]: 0.376 µM (active)
IC50 [12]: 5.59 µM (active)

CCc1nc2ccccc2c(C(=O)OCC(=O)Nc2cccc(S(=O)(=O)N3CCOCC3)c2)c1C
IC50 [5]: 4.01 µM (active)
AC50 [13]: 13.9 µM (active)
EC50 [6]: 12.8 µM (active)
EC50 [14]: 10.2 µM (active)
IC50 [7]: 5.81 µM (inactive)
IC50 [8]: > 20 µM (inactive)
AC50 [15]: 44.6 µM (active)
EC50 [9]: 5.64 µM (active)
IC50 [10]: 9.75 µM (active)
AC50 [16]: 31.5 µM (active)

CCCc1ccc(/C=C2\C(=O)c3ccccc3C(O)=C2C(=O)OCC)cc1
AC50 [17]: 5.54 µM (active)
IC50 [18]: 2.32 µM (not active)
EC50 [19]: > 38 µM (not active)
IC50 [20]: 7.19 µM (active)
IC50 [21]: 9.62 µM (active)
IC50 [22]: 5.12 µM (active)
EC50 [23]: 8.95 µM (active)
EC50 [24]: 56.4 µM (inconclusive)
IC50 [25]: 5.7 µM (active)

O=C(CSc1ncnc2c1oc1ccccc12)N1CCCc2ccccc21
IC50 [5]: 4.86 µM (active)
EC50 [26]: > 79.4 µM (inactive)
EC50 [6]: 11.9 µM (active)
IC50 [7]: 5.25 µM (inactive)
IC50 [8]: > 20 µM (inactive)
EC50 [27]: 85.1 µM (not active)
EC50 [9]: 5.08 µM (active)
EC50 [28]: > 79.4 µM (not active)
IC50 [10]: 9.45 µM (active)

COc1ccc(C(Nc2ccccn2)c2c(NC(=O)c3ccco3)sc(C)c2C)cc1OC (configuration not stated)
EC50 [3]: 1.19 µM (active)
